# Laboratory results: the NIST ThermoML archive (doi:10.1021/je200822w)
# Numbers after ± are expanded uncertainties.
# Experiment: activity coefficient (dimensionless); of the first substance listed, at infinite dilution; xn = mol fraction of the nth substance listed
# Details: 101 kPa, Liquid, Chromatography, x1 = 0
SMILES,activity coefficient (318.15 K),activity coefficient (323.15 K),activity coefficient (333.15 K),activity coefficient (343.15 K),activity coefficient (353.15 K),activity coefficient (353.13 K)
CC(C)=O [acetone] + CCCC[N+]1(C)CCCC1.N#CN=C=[N-],0.905 ± 0.057,0.917 ± 0.058,0.942 ± 0.059,0.963 ± 0.061,0.986 ± 0.062,
"COCCOC [1,2-dimethoxyethane] + CCCC[N+]1(C)CCCC1.N#CN=C=[N-]",1.19 ± 0.08,1.23 ± 0.08,1.31 ± 0.09,1.39 ± 0.09,,1.46 ± 0.1
C1CCCCC1 [cyclohexane] + CCCC[N+]1(C)CCCC1.N#CN=C=[N-],21.1 ± 1.4,20.6 ± 1.4,19.5 ± 1.3,18.5 ± 1.3,17.7 ± 1.2,
c1ccccc1 [benzene] + CCCC[N+]1(C)CCCC1.N#CN=C=[N-],1.41 ± 0.09,1.42 ± 0.09,1.46 ± 0.1,1.49 ± 0.1,1.53 ± 0.1,
Cc1ccccc1 [toluene] + CCCC[N+]1(C)CCCC1.N#CN=C=[N-],2.17 ± 0.15,2.2 ± 0.15,2.26 ± 0.15,2.3 ± 0.16,2.35 ± 0.16,
ClCCl [dichloromethane] + CCCC[N+]1(C)CCCC1.N#CN=C=[N-],0.541 ± 0.04,0.558 ± 0.04,0.591 ± 0.042,0.623 ± 0.043,0.655 ± 0.045,
C[N+](=O)[O-] [nitromethane] + CCCC[N+]1(C)CCCC1.N#CN=C=[N-],0.592 ± 0.042,0.596 ± 0.042,0.604 ± 0.042,0.609 ± 0.043,0.615 ± 0.043,
CC(C)OC(C)C [diisopropyl ether] + CCCC[N+]1(C)CCCC1.N#CN=C=[N-],17.9 ± 1.2,17.9 ± 1.2,18 ± 1.2,17.9 ± 1.2,17.9 ± 1.2,

# Second part, the molecule after the results:
activity coefficient (318.15 K),activity coefficient (323.15 K),activity coefficient (333.15 K),activity coefficient (343.15 K),activity coefficient (353.15 K),activity coefficient (353.13 K),SMILES
0.391 ± 0.034,0.411 ± 0.034,0.453 ± 0.036,0.496 ± 0.038,0.54 ± 0.039,,ClC(Cl)Cl [trichloromethane] + CCCC[N+]1(C)CCCC1.N#CN=C=[N-]
47.3 ± 3.2,46.3 ± 3.2,44.4 ± 3,42.4 ± 2.9,40.8 ± 2.8,,C=CCCCCCC [oct-1-ene] + CCCC[N+]1(C)CCCC1.N#CN=C=[N-]
1.36 ± 0.09,1.38 ± 0.09,1.42 ± 0.09,1.46 ± 0.1,1.49 ± 0.1,,C1CCOC1 [tetrahydrofuran] + CCCC[N+]1(C)CCCC1.N#CN=C=[N-]
50.1 ± 3.4,48.4 ± 3.3,45.1 ± 3.1,42.2 ± 2.9,39.6 ± 2.7,,CCC1CCCCC1 [ethylcyclohexane] + CCCC[N+]1(C)CCCC1.N#CN=C=[N-]
115 ± 8,110 ± 8,102 ± 7,95.2 ± 6.5,89.2 ± 6.1,,CCCCCCCC [octane] + CCCC[N+]1(C)CCCC1.N#CN=C=[N-]
76 ± 5.2,73.6 ± 5,68.9 ± 4.7,64.7 ± 4.4,60.9 ± 4.2,,CCCCCCC [heptane] + CCCC[N+]1(C)CCCC1.N#CN=C=[N-]
2.33 ± 0.16,2.35 ± 0.16,2.39 ± 0.16,2.43 ± 0.17,2.47 ± 0.17,,CCOC(C)=O [ethyl acetate] + CCCC[N+]1(C)CCCC1.N#CN=C=[N-]
0.851 ± 0.055,0.868 ± 0.055,0.901 ± 0.057,0.931 ± 0.059,0.962 ± 0.06,,c1ccsc1 [thiophene] + CCCC[N+]1(C)CCCC1.N#CN=C=[N-]
